What was measured:
HaCaT = assay: In vitro UVA/UVB photoprotection test on HaCaT; assay type: cell-based, human
Description: Spontaneously Immortalized Aneuploid Human Keratinocyte Cell Line (HaCaT) was bought from CLS (Eppeheim, Germany) and used as an in vitro model. For all experiments the keratinocytes were seeded onto 96-well plates at a density of 1.6×10^5 cells/ml (0.2 ml per well) of growth medium (DMEM supplemented with fetal bovine serum (10%), penicillin ([…]) and streptomycin (100 U/ml)).
Test substances included compounds number 3, 9, 15 and 20. Compounds were dissolved in DMSO and then diluted in serum free medium (DMEM supplemented penicillin ([…]) and streptomycin (100 U/ml)). After 24 h incubation was growth medium changed to serum free medium containing test compounds. The final applied concentration range was 3.9-31.25 μmol/l. As a control, serum free medium supplemented with appropriate concentration of DMSO (0.5%, v/v) was used. Rosmarinic acid was used as positive control. After 60 minutes incubation with test compounds medium was discarded, cells were washed two-times with PBS and PBS supplemented with glucose (1 mg/ml) was applied. To study UVA photoprotection, a plate was exposed to a cytotoxic dose of UVA radiation (10 J/cm2) using a solar simulator SOL 500 (Dr. Hoenle Technology, Germany) equipped with a H1 filter transmitting wavelengths of 320-400 nm. To study UVB photoprotection, a plate was exposed to a cytotoxic dose of UVB radiation (150 mJ/cm2) using the solar simulator equipped with a H2 filter transmitting wavelengths of 295-320 nm. Intensity of UVA or UVB radiation was evaluated before each irradiation by UVA- or UVB-meter. Control (non-irradiated) plates were for the period of irradiation incubated in dark. After UVA or UVB exposure PBS with glucose was discarded and serum free medium was applied. After 24 hours (37° C., 5% CO2) cell damage was evaluated by neutral red (NR) incorporation into viable cells. Medium was discarded and NR solution (0.03% w/v, PBS) was applied. After 60 minutes NR solution was discarded, cells were fixed with a mixture of formaldehyde (0.5%, v/v) and CaCl2 (1%, m/v) in ratio 1:1 and then NR was dissolved in methanol (50%, v/v) with acetic acid (1%, v/v).
After 5 minutes of intensive shaking absorbance was measured at 540 nm. Experiments were performed in four independent repetitions with use of […] to minimize individual sensitivity of donor cells. Photoprotective effect was evaluated by comparison of experimental data (absorbance) of test compounds with a positive control and a negative control (according to the following equation: […]
As . . . absorbance of sample (cells pre-incubated with test compounds in serum free medium and irradiated)
Anc . . . absorbance of negative control (cells pre-incubated with s DMSO in serum free medium and non-irradiated=incubated in dark)
Apc . . . absorbance of positive control (cells pre-incubated with s DMSO in serum free medium and irradiated)

[1] = test system: Normal Human Epidermal Keratinocytes (NHEK); assay: In vitro phototoxicity test (neutral red) on NHEK; assay type: cell-based
Source text: Normal Human Epidermal Keratinocytes (NHEK) were used as an in vitro model. Cells were isolated from tissue specimens obtained from healthy patients undergoing plastic surgery at the Department of Plastic and Aesthetic Surgery (University Hospital Olomouc). The use of skin tissue was in accordance with the Ethics Committee of the University Hospital and Faculty of Medicine and Dentistry, Palacky University, Olomouc and all patients signed written informed consent. NHEK were used between the 3rd and 4th passage. […] Intensity of UVA radiation was evaluated before each irradiation by UVA-meter. […]
After UVA exposure PBS with glucose was discarded and serum free medium was applied. After 24 hours (37° C., 5% CO2) cell damage was evaluated by neutral red (NR) incorporation into viable cells. […] After 5 minutes of intensive shaking absorbance was measured at 540 nm. […] Phototoxic effect was evaluated as % of viability of control cells that was calculated from experimental data (absorbance) according to the following equation: […]
AS . . . absorbance of sample (cells pre-incubated with test compound in serum free medium and irradiated)
AC . . . absorbance of control (cells pre-incubated with DMSO in serum free medium and irradiated)
AB . . . absorbance of background (extraction solution)

[2] = Table 17: UVA-induced damage (10 J/cm2), 3.9 μmol/l
[3] = Table 17: UVA-induced damage (10 J/cm2), 7.8 μmol/l
[4] = Table 17: UVA-induced damage (10 J/cm2), 15.6 μmol/l
[5] = Table 17: UVA-induced damage (10 J/cm2), 31.3 μmol/l
[6] = Table 18: titled UVA-induced damage, 3.9 μmol/l
[7] = Table 18: titled UVA-induced damage, 7.8 μmol/l
[8] = Table 18: titled UVA-induced damage, 15.6 μmol/l
[9] = Table 18: titled UVA-induced damage, 31.3 μmol/l

SMILES	Protection (%) (HaCaT; [2])	Protection (%) (HaCaT; [3])	Protection (%) (HaCaT; [4])	Protection (%) (HaCaT; [5])	Protection (%) (HaCaT; [6])	Protection (%) (HaCaT; [7])	Protection (%) (HaCaT; [8])	Protection (%) (HaCaT; [9])	viability of NHEK cells ([1]; UVA+, 0.6 μmol/l)	viability of NHEK cells ([1]; UVA−, 12.5 μmol/l)
Clc1nc(NCc2ccco2)c2ncn(C3CCCO3)c2n1 (stereo not shown) [Compound 15, 2-chloro-6-furfurylamino-9-(tetrahydrofuran-2-yl)purine]	41.2	56.9	55.3	76.7	12.3	35.3	37.8	51.3		
Clc1nc(NCC2CCCO2)c2ncn(C3CCCO3)c2n1 (stereo not shown) [Compound 20, 2-chloro-6-(tetrahydrofuran-2-ylmethylamino)-9-(tetrahydrofuran-2-yl)purine]	12.3	25.0	28.9	31.6	45.7	66.2	64	75.2		
CN(C)CCCN1c2ccccc2Sc2ccc(Cl)cc21 [chlorpromazine, reference compound]									below 80 % of control	below 50%
c1csc(CNc2ncnc3c2ncn3C2CCCO2)c1 (stereo not shown) [Compound 9, 6-(thiophen-2-ylmethylamino)-9-(tetrahydrofuran-2-yl)purine]	72.1	70.3	66.8	61.4	48.8	56	55.7	56.5		
OCc1ccc(CNc2ncnc3c2ncn3C2CCCO2)o1 (stereo not shown) [Compound 3, 6-(5-hydroxymethylfuran-2-ylmethylamino)-9-(tetrahydrofuran-2-yl)purine]	26.8	34.3	46.0	50.7	27.3	46.5	47.8	53.8		
